The values that follow come from PubChem BioAssay AID588633 (Johns Hopkins Ion Channel Center, 2011).

In this assay the target is Transient receptor potential cation channel subfamily V member 1 (Homo sapiens) (UniProt Q8NER1). The assay is described as follows: TRPV1 channel agonists by patch clamp, confirmation, automated patch clamp, HEK293 cells (AID 588633). The settings on record: TRPV1-HEK293, automated patch clamp current; at 10 µM; stronger effect = higher value.

Active and inactive are the calls of the source.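 The calls were made as follows: active = TRPV1 channel activation above 50%; inactive = activation of 50% or less.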

Transient receptor potential cation channel subfamily V member 1 (Homo sapiens), sequence (Q8NER1 whole entry, looked up): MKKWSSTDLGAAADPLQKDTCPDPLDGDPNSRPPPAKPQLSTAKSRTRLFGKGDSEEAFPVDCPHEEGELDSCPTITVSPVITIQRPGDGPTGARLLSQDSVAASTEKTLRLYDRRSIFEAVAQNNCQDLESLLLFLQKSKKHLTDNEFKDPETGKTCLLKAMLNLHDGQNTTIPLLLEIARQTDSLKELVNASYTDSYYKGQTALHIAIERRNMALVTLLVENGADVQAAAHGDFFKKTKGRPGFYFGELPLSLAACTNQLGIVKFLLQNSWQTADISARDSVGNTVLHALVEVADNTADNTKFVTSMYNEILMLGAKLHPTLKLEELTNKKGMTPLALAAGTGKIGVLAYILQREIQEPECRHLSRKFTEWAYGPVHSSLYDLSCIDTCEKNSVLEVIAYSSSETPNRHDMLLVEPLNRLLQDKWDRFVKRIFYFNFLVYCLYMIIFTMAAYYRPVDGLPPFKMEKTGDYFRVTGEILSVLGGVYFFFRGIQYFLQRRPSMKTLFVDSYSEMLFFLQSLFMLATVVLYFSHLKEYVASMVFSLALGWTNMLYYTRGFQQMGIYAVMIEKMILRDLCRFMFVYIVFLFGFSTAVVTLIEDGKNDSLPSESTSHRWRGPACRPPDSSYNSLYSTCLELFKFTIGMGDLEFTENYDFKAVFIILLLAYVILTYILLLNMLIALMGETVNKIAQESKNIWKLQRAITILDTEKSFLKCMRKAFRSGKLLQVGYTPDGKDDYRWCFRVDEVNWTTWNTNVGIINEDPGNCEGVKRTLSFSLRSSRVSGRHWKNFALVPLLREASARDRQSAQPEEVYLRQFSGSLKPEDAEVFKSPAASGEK

As for `Cc1ccc(Cn2nc(C(=O)Nc3ccc(Br)cc3)cc2C)cc1`, the activation was 26.9% (inactive).

As to `CC(C)(C)c1ccc(/C=N/OCC(=O)NCc2ccc(F)cc2)cc1`, the activation is 9.95% (inactive).

`CC(C)(C)c1ccc(C(=O)Nc2ccc(S(N)(=O)=O)cc2)cc1`: the activation was 378%.

In the case of `Cc1cnc(NC(=O)c2cc3c(s2)CCCC3)s1`, the activation was 32.4% (inactive).

Consider `Cc1ccc(C(=O)Nc2ccc(SC(F)F)cc2)s1`, for which the activation was 54.6%.

On to `CCCCCCCCC(=O)NCc1ccc(O)c(OC)c1`, for which the activation is 43.2% (inactive).

With `COC(=O)c1[nH]c2ccc(C)cc2c1NC(=O)CN1CCCC(C)(C)C1`, the activation was 61.2%.

As to `CCc1nc(Nc2ccc3c(c2)OCCO3)c2oc3ccccc3c2n1`, the activation is 111%.

Take `CC(C)(C)c1ccc(OCCNC(=O)Cc2ccc(F)cc2)cc1`: the activation was 39.6% (inactive).

For `O=C(Nc1cccc([N+](=O)[O-])c1)c1ccc(-c2ccccc2)cc1`, the activation is 5.26% (inactive).

Turning to `CCN(CC)S(=O)(=O)c1ccc(/C=C/C(=O)Nc2ccc(N3CCOCC3)cc2)cc1`, the activation was 27.1% (inactive).

Turning to `CCC(C)(C)c1ccc(OCC(=O)Nc2ccncc2)cc1`, the activation is 440%.

Take `CC(C)c1ccc(CNNC(=O)c2ccccc2)cc1`: the activation is 156%.

Consider `Cc1cccn2c(=O)c3cc(C(=O)NCC4CCCO4)c(=N)n(Cc4ccc(F)cc4)c3nc12` (centres undefined), for which the activation is 229%.

`CC(C)c1ccc(/C=C/C(=O)N2CCOCC2)cc1`: the activation is 242%.

Regarding `CC(C)(C)c1ccc(C(=O)Nc2ccc3c(c2)C(=O)NC3=O)cc1`, the activation is 3.59% (inactive).

In the case of `O=C(Nc1ccccc1)c1cc(-c2ccccc2Cl)no1`, the activation is 40.5% (inactive).

As for `CCCCCCC1CCC(C(=O)N2CCOCC2)CC1` (centres undefined), the activation is 17.2% (inactive).

With `O=C(C1=NOC(CNc2ncc(C(F)(F)F)cc2Cl)C1)N1CCOCC1` (centres undefined), the activation was 157%.

With `CCc1ccc2oc(C(=O)Nc3cccnc3)c(C)c2c1`, the activation was 4.84% (inactive).

`CC(C)c1ccc(NCCC(=O)c2cccs2)cc1`: the activation was 57.6%.

Take `CCC(C)Sc1cccc(-c2nc3ccc(Cl)cn3c2NCc2ccccc2)c1` (centres undefined): the activation was 10.9% (inactive).

`CC(C)(C)c1ccc(NC(=O)c2ccsc2)cc1`: the activation is 199%.

Turning to `Oc1ccccc1N=Cc1c(O)ccc2ccccc12`, the activation was 10.6% (inactive).

In the case of `Cc1nc(Nc2cccc(F)c2)c2oc3ccccc3c2n1`, the activation was 58.3%.

With `CCOC(=O)c1sc(-c2ccccc2)cc1NC(=O)Nc1ccccc1`, the activation was 43.2% (inactive).

Take `Cc1ccc(/C=N/Nc2nc(N3CCCCC3)nc(N3CCCCC3)n2)o1`: the activation is 148%.

For `CCN(c1ccc(NC(=O)c2ccc(Cl)nc2)cc1)C(C)C`, the activation was 291%.

As for `CC(C)(C)c1ccc(/C=C/C(=O)N2CCCCC2)cc1`, the activation was 420%.

On to `Cc1ncsc1CCC(=O)N1CCCC(Nc2ccc(C(C)C)cc2)C1` (centres undefined), for which the activation is 335%.

Regarding `CC(C)c1ccc(NC(=O)N2CCC(c3nc4ccccc4o3)CC2)cc1`, the activation was 135%.

For `Cc1ccc(NC(=O)c2cc3c(s2)CCCC3)cc1`, the activation was 402%.

With `CCOC(=O)[C@H]1[C@H]2COc3ccc(Cl)cc3[C@@H]2N2C(=O)c3ccc(C)cc3NC(=O)[C@@]12C`, the activation was 34% (inactive).

For the molecule `Cc1ccc(Nc2nc(C)nc3c2oc2ccccc23)cc1`, the activation was 317%.

Regarding `CC(C)(C)c1ccc(OCCCC(=O)N2CCOCC2)cc1`, the activation is 304%.

As for `CC(=O)c1ccc(Nc2ncnc3c2oc2ccccc23)cc1`, the activation is 69.7%.

As for `O=C(C1=C[C@@H](c2ccccc2)C[C@@H](OCc2ccc(CO)cc2)O1)N1CCCCCCC1`, the activation was 323%.

Consider `Cc1cc(C(=O)N/N=C/c2cccc([N+](=O)[O-])c2)c(C)n1-c1ccccc1`, for which the activation is 76.2%.

Regarding `CCCSc1ccc(-c2nn(-c3ccccc3)cc2/C=C(/C#N)C(=O)N2CCOCC2)cc1`, the activation is 23.7% (inactive).

For `Cc1ccc(C2=NN(C)c3nc4ccccc4n3C2)cc1`, the activation is 105%.

As to `CC(=O)c1ccc(N2CCN(C(=O)Nc3ccc(Cl)cc3)CC2)cc1`, the activation is 6.07% (inactive).

For the molecule `COCCNC(=O)CCc1c(C)nc2c(c(C)nn2-c2ccc(C)cc2)c1C`, the activation was 197%.

Turning to `COc1ccc(C(=O)Nc2ccc(C3=NNC(=O)CC3C)cc2NC(=O)c2ccc(OC)cc2)cc1` (centres undefined), the activation was 51.6%.

As to `O=C(/C=C\c1cn(-c2ccccc2)nc1-c1ccc2c(c1)OCCO2)N1CCOCC1`, the activation was 226%.

Turning to `O=C(CCc1ccccc1)N1CCCC(Nc2ccc(F)cc2)C1` (centres undefined), the activation is 585%.

With `COc1ccc(Cn2nc(-c3ccccc3)c(N3CCCCC3)cc2=O)cc1`, the activation was 143%.

As to `CC(OC(=O)CC1CCCCC1)C(=O)Nc1ccc(F)cc1` (centres undefined), the activation was 77.3%.

Regarding `Cc1cc2oc(C(=O)Nc3cccnc3)c(C)c2cc1C`, the activation was 6.35% (inactive).

As for `CC(=O)Nc1ccc(N=Cc2c(O)ccc3ccccc23)cc1`, the activation is 30% (inactive).

On to `CC1CCN(C(=O)/C=C/c2ccc(C(C)(C)C)cc2)CC1`, for which the activation was 12.5% (inactive).

On to `Cc1cc2c(NC(=O)Nc3ccc(C(C)(C)C)cc3)cccc2nn1`, for which the activation is 200%.

`CC(C)(C)c1ccc(/C=C/C(=O)Nc2ccncc2)cc1`: the activation is 69.2%.

Turning to `O=C(Nc1cccnc1)c1ccc(-c2ccccc2)cc1`, the activation was 67%.

As for `O=C(c1cc(-c2ccc(Cl)cc2Cl)on1)N1CCOCC1`, the activation was 334%.

Turning to `Cc1nc(Nc2cccc(Cl)c2)c2oc3ccccc3c2n1`, the activation was 34.8% (inactive).

For `COc1ccc(NC2c3ccccc3C(=O)N2Cc2ccc3c(c2)OCO3)cc1` (centres undefined), the activation is 330%.

As to `COc1cccc(/C=N/n2c(SC)nnc2-c2ccccc2)c1O`, the activation is 173%.

Consider `CC(C)c1ccc(NC2CCCN(C(=O)c3ccco3)C2)cc1` (centres undefined), for which the activation is 387%.

As to `O=C(NCc1cccnc1)C1CCC(c2ccc(Cl)cc2)CC1` (centres undefined), the activation was 196%.

As for `O=C(COC(=O)C12CC3CC(CC(C3)C1)C2)Nc1ccc2[nH]c(=O)[nH]c2c1`, the activation was 34.9% (inactive).

Regarding `CCCn1c(SC(C)C(=O)N2CCOCC2)nc2ccc(Br)cc2c1=O` (centres undefined), the activation was 253%.

Take `CC(C)(C)c1ccc(NC(=O)N2CCCN(c3ccc([N+](=O)[O-])cn3)CC2)cc1`: the activation was 287%.

For the molecule `CCCOc1ccc(/C=C/C(=O)N2CCOCC2)cc1`, the activation was 338%.

As to `CC(C)(C)c1cc(CCC(=O)NCc2ccncc2)cc(C(C)(C)C)c1O`, the activation was 265%.

On to `COc1ccc(NC(=O)CCCSc2nc(-c3ccco3)cc(C(F)(F)F)n2)cc1OC`, for which the activation is 406%.

Regarding `COc1ccc(Nc2nc(C)nc3c2oc2ccccc23)cc1`, the activation is 419%.

Consider `CC(=O)c1ccc(NC(=O)N2CCN(c3ccc(C)cc3)C(C)C2)cc1` (centres undefined), for which the activation is 155%.

For `Cc1ccc(N2CCN(C(=O)N3CCOCC3)CC2)c(C)c1`, the activation was 33.5% (inactive).

Consider `Cc1ccc(Nc2ncnc3c2oc2ccccc23)cc1`, for which the activation was 200%.

Turning to `Cc1ccc2nc(-c3ccccn3)cc(C(=O)Nc3ccc4c(c3)OCO4)c2c1`, the activation was 1.55% (inactive).

In the case of `CCN(CCNC(=O)c1ccc(C#N)cc1)c1cccc(C)c1`, the activation was 427%.

Turning to `CC(=O)c1ccc(N2CCN(C(=O)Nc3ccc(C(C)C)cc3)CC2)cc1`, the activation is 316%.

Consider `CC(C)(C)c1ccc(/C=C/C(=O)Nc2cccnc2)cc1`, for which the activation was 131%.

`CC1CCCN(c2ccc(C(=O)Nc3cccnc3)cc2[N+](=O)[O-])C1` (centres undefined): the activation was 467%.

On to `O=C(NCCCc1ccccc1)c1ccc(F)cc1`, for which the activation was -2.6% (inactive).

Take `COc1ccc(Nc2ncnc3c2oc2ccccc23)cc1`: the activation was 48.6% (inactive).

With `O=C(Nc1ccc(N2CCCCCC2)cc1)c1cccc(S(=O)(=O)N2CCOCC2)c1`, the activation was 197%.

On to `CCC(C)Sc1ccc(-c2nc3ccc(C)cn3c2NCc2ccccc2)cc1OC` (centres undefined), for which the activation is 27.4% (inactive).

With `CC(C)CCSc1nc(N2CCOCC2)c2c(c1C#N)CC(C)(C)OC2`, the activation is 93.7%.

For `CCc1ccc(NC(=O)Nc2ccc3c(c2)N(C)C(=O)CS3)cc1`, the activation was 28.7% (inactive).

For `O=C(/C=C\c1cn(-c2ccccc2)nc1-c1cccs1)N1CCOCC1`, the activation is 272%.

Consider `O=C(Nc1ccc(C(F)(F)F)cc1)c1ccc2ncsc2c1`, for which the activation is 145%.

As for `O=C(NCc1ccccc1)[C@@H]1C[C@H]1[C@@H](NP(=O)(c1ccccc1)c1ccccc1)c1ccccc1`, the activation is 97.1%.

For `CCc1ccc(/C=C2\SC(N3CCOCC3)=NC2=O)cc1`, the activation is 199%.

On to `Cc1ccc(S(=O)(=O)Cc2ccc(C(=O)NCCc3ccccc3)o2)cc1`, for which the activation is 50.9%.

For the molecule `NS(=O)(=O)c1ccc(NC(=O)c2ccc3c(c2)CCCC3)cc1`, the activation is 23.2% (inactive).

As to `CCCCCC1CCC(C(=O)N2CCOCC2)CC1` (centres undefined), the activation was 57%.

For the molecule `Cc1cc(C(=O)NCCC2=CCCCC2)ccc1[N+](=O)[O-]`, the activation was 369%.

As for `COc1ccc(CNC(=S)NCc2ccc(Cl)cc2)cc1OC`, the activation was 272%.

On to `CCc1nc(Nc2ccccc2)c2oc3ccccc3c2n1`, for which the activation was 128%.

With `CC(C)(C)c1ccc2c(c1)OC(C(=O)N/N=C\c1ccncc1)CO2` (centres undefined), the activation was 182%.

As to `CC(C)(C)OC(=O)CNC(=O)c1[nH]cnc1C(=O)N[C@@H](Cc1ccccc1)C(=O)OC(C)(C)C`, the activation is 28.7% (inactive).

Regarding `CCC(C)Sc1cccc(-c2nc3cc(C)ccn3c2NCc2ccccc2)c1` (centres undefined), the activation is 63.1%.

For `CS(=O)(=O)N1CCc2cc(C(=O)Nc3ccc(Br)cc3)ccc21`, the activation was 5.79% (inactive).
